“And” between values parts separate entries of the source, which are not always exact repeats. Identical values can stand only once. Numbered stars: 1 amine (or outer) side, 2 acyl side, 3 side chain; on linkers, the order of the positions; unused ones are H or OH. Square brackets hold non-standard residues; d marks the D form. Peptide text beside a SMILES is read from it. X1 = O=C(c1ccc(-c2ccc(N3CCNCC3)cc2)c(CN[*:1])c1)[*:2]
Target: T1, integrin α4β7 (Homo sapiens, UniProt P13612+P26010)
T1 sequence (P13612 34-1032): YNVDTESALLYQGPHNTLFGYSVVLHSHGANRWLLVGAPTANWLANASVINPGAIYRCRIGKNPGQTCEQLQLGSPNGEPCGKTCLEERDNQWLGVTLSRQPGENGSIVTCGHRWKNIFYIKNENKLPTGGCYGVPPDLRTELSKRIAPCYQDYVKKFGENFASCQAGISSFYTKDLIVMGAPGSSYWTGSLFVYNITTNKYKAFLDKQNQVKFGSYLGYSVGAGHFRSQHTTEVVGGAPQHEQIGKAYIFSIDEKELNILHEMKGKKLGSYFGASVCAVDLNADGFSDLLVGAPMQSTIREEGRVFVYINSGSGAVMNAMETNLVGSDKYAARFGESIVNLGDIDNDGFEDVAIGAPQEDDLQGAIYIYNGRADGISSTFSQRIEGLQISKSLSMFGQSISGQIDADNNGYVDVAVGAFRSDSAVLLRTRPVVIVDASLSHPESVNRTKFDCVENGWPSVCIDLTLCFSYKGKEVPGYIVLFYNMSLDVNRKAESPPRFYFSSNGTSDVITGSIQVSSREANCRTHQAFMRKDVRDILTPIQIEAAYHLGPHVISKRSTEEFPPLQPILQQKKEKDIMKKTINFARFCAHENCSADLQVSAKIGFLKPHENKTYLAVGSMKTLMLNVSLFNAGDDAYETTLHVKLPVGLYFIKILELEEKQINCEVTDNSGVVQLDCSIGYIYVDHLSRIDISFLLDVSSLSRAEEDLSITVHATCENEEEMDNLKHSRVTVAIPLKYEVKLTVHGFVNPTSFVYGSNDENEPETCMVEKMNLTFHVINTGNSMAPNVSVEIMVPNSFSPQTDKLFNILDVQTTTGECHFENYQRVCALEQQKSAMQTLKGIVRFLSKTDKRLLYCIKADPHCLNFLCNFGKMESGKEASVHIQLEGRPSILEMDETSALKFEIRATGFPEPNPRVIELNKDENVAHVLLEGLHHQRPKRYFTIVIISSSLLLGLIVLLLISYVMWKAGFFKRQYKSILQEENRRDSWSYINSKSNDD
T1 sequence (P26010 20-798): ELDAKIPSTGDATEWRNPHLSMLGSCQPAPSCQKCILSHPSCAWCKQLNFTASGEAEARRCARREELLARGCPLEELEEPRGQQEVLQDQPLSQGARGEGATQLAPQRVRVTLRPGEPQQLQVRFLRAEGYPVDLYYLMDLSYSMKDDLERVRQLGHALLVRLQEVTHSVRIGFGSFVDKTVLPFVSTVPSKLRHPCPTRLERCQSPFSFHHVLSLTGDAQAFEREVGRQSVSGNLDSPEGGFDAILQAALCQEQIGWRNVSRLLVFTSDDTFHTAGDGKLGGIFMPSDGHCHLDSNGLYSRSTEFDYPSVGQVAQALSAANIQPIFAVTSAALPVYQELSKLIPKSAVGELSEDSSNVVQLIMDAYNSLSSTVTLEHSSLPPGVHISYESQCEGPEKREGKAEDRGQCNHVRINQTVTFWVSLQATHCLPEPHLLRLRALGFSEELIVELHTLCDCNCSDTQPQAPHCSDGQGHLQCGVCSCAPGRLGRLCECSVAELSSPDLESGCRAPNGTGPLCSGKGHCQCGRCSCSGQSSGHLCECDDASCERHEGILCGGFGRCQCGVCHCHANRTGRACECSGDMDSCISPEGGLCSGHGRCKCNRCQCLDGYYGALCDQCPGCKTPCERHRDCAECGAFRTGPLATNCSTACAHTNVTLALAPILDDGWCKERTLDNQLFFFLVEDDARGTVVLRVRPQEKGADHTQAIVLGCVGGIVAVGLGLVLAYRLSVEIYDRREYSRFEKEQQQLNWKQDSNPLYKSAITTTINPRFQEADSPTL
Experiment: Integrin α4β7-MAdCAM human cell adhesion assay (RPMI8866 cells)
Format: cell-based
Parameters: host or cells: RPMI8866 human cells
Details: for IC50: adhesion of RPMI8866 cells to MAdCAM-1 coated plates
Procedure: RPM18866 human cells (Sigma #95041316) were cultured in RPMI 1640 medium (HyClone SH30027.1) supplemented with 10% FBS (Seradigm) and 1% Penicillin-Streptomycin. […] RPM18866 cells were resuspended at 10 million cells/ml in PBS containing […] and incubated at 37° C. for 30 min in a 50 ml tube. […] The plate was emptied by inverting and blotting on paper towels and washed manually twice with PBS. 100 μl PBS was then added to each well. The fluorescence was read (Ex495/Em515) using a plate reader (Tecan Infinite 1000). To calculate the dose response, the fluorescence value of control wells not containing cells was subtracted from each test well.

Compound	IC50	fold difference in IC50 between RAMOS and RPMI8866 cell adhesion assays, in favor of integrin α4β7 (RAMOS (α4β1) versus RPMI8866 (α4β7)) [fold]
CC(C)C[C@@H]1NC(=O)c2ccc(-c3ccc(N4CCN(Cc5cccc(CN6CCN(c7ccc(-c8ccc9cc8CNC(=O)[C@@H]8CCCN8C(=O)[C@H](C)NC(=O)[C@H]([C@@H](C)O)NC(=O)[C@H](CC(=O)O)NC(=O)[C@H](CC(C)C)NC9=O)cc7)CC6)c5)CC4)cc3)c(c2)CNC(=O)[C@@H]2CCCN2C(=O)[C@H](C)NC(=O)[C@H]([C@@H](C)O)NC(=O)[C@H](CC(=O)O)NC1=O [Compound 18]	8.4 nM	
CC(C)C[C@@H]1NC(=O)c2ccc(-c3ccc(N4CCNCC4)cc3)c(c2)CNC(=O)[C@@H]2CCCN2C(=O)[C@H](C)NC(=O)[C@H]([C@@H](C)O)NC(=O)[C@H](CC(=O)O)NC1=O [Compound 8] (cyclo(P[X1]LDTA))	~202 nM and 202 nM	2.2
CC(C)C[C@@H]1NC(=O)c2ccc(-c3ccc(N4CCN(C(=O)COCC(=O)N5CCN(c6ccc(-c7ccc8cc7CNC(=O)[C@@H]7CCCN7C(=O)[C@H](C)NC(=O)[C@H]([C@@H](C)O)NC(=O)[C@H](CC(=O)O)NC(=O)[C@H](CC(C)C)NC8=O)cc6)CC5)CC4)cc3)c(c2)CNC(=O)[C@@H]2CCCN2C(=O)[C@H](C)NC(=O)[C@H]([C@@H](C)O)NC(=O)[C@H](CC(=O)O)NC1=O [Compound 17]	~19 nM	

Source: patent US11286281B2, “Homodetic cyclic peptides targeting alpha-4-beta-7 integrin” (priority 2017, dated 2022)
